Like-named read-outs stand apart in the source and are kept apart here.
Tests used:
[1] = tested on: cloned KCa3.1 channels; conditions: cited from earlier work
[2] = tested on: KCa2.2; conditions: cited from earlier work
[3] = tested on: KCa2.3; conditions: read-out: EC50 KCa2.3 currents; ref Hougaard et al., 2007; cited from earlier work
[4] = tested on: KCa2.1; conditions: ref Hougaard et al., 2007; cited from earlier work
[5] = tested on: KCa2/3 channels; conditions: ref Strøbæk et al., 2004; cited from earlier work
[6] = target: hKCa2.3 (Homo sapiens, UniProt Q9UGI6); experiment: Whole-cell patch-clamp of KCa2.3 currents; assay type: cell-based
Sequence of hKCa2.3 (Q9UGI6 whole entry): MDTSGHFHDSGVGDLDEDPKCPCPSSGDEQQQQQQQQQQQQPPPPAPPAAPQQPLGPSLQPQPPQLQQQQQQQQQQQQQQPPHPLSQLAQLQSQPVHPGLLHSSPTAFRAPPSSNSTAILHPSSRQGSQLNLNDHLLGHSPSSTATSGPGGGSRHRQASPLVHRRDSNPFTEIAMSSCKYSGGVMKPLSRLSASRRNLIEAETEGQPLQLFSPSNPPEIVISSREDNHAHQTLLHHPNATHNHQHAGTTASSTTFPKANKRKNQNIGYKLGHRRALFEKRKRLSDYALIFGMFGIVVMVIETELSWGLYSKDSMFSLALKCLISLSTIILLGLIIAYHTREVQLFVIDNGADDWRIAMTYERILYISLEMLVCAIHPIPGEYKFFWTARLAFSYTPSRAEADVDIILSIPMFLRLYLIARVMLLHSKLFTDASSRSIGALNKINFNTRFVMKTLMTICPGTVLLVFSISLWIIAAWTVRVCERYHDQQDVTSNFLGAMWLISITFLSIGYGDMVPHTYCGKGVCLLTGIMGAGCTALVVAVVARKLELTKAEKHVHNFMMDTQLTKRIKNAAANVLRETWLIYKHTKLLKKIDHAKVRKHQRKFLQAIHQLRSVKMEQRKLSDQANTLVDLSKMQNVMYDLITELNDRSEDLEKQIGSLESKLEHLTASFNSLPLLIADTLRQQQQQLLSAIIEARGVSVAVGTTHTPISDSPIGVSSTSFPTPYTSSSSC

In the case of Cc1cc(NC2CCCCC2)nc(-n2nc(C)cc2C)n1 [CyPPA], the “effect on KCa3.1” value ([1]; ref Hougaard et al., 2007) is given as “no effect”, the EC50 ([2]; read-out: EC50 KCa2.2 currents, ref Hougaard et al., 2007) is given as 14 µM and the EC50 [3] is given as 6 µM. For the same compound, the “effect on KCa2.1” value [4] was “no effect”.
In the case of CCn1c(=O)[nH]c2cc(Cl)c(Cl)cc21 [DCEBIO, 5,6-dichloro-EBIO], the EC50 ([1]; read-out: EC50 KCa3.1, ref Singh et al., 2001) is given as 0.75 µM and the EC50 ([2]; read-out: EC50 KCa2.2, ref Pedarzani et al., 2001) is given as 27 µM.
For CCn1c(=O)[nH]c2ccccc21 [EBIO, 1-ethylbenzimidazolin-2-one], the EC50 ([1]; read-out: EC50 cloned KCa3.1 channels, ref Wulff et al., 2007) is given as 30 µM.
For O=C1Nc2c(ccc(Cl)c2Cl)C1=NO [NS309, 6,7-dichloro-1H-indole-2,3-dione 3-oxime], the “concentrations activating KCa2 and KCa3.1 channels” value [5] is given as “submicromolar concentrations”.
In the case of Cl.c1ccc2c(c1)CCC[C@H]2Nc1nc2ccccc2[nH]1 [NS8593, N-[(1R)-1,2,3,4-tetrahydro-1-naphthalenyl]-1H-benzimidazol-2-amine hydrochloride], the IC50 ([6]; read-out: IC50 inhibition of KCa2.3 currents, absence of SKA-31) is reported as 0.7 µM and the “shift of IC50 on KCa2.3 by SKA-31” value ([6]; with versus without SKA-31) is reported as “roughly 10 fold”.

Reference: paper PMC2635097 (Molecular pharmacology, 2008)
